Laboratory results from patent US20060069132A1, “Azolecarboxamide herbicides” (priority 2004, published 2006).

Columns and labels:
[1] = system: bermudagrass; test: Test C pre-/postemergence herbicide test; type: in vivo, Cynodon dactylon; conditions: for Plant response rating (0 = no effect, 100 = complete control), Bermudagrass: 125 g ai/ha
Description: (§1) Seeds of plant species selected from bermudagrass (Cynodon dactylon (L.) Pers.), Surinam grass (Urochloa decumbens (Staph) R. D. Webster, previously named Brachiaria decumbens Stapf), cocklebur (Xanthium strumarium L.), corn (Zea mays L.), large crabgrass (Digitaria sanguinalis (L.) Scop.), woolly cupgrass (Eriochloa villosa (Thunb.) Kunth), giant foxtail (Setaria faberi Herrm.), goosegrass (Eleusine indica (L.) Gaertn.), johnsongrass (Sorghum halepense (L.) Pers.), kochia (Kochia scoparia (L.) Schrad.), lambsquarters (Chenopodium album L.), morningglory (Ipomoea coccinea L.), eastern black nightshade (Solanum ptycanthum Dunal), yellow nutsedge (Cyperus esculentus L.), pigweed (Amaranthus retroflexus L.), common ragweed (Ambrosia elatior L.), soybean (Glycine max (L.) Merr.), common (oilseed) sunflower (Helianthus annuus L.) and velvetleaf (Abutilon theophrasti Medik.) were planted and treated preemergence with test chemicals formulated in a non-phytotoxic solvent mixture which included a surfactant.
(§2) At the same time, plants selected from these crop and weed species and also winter barley (Hordeum vulgare L.), blackgrass (Alopecurus myosuroides Huds.), canarygrass (Phalaris minor Retz.), chickweed (Stellaria media (L.) Vill.), downy bromegrass (Bromus tectorum L.), green foxtail (Setaria viridis (L.) Beauv.), Italian ryegrass (Lolium multiflorum Lam.), wheat (Triticum aestivum L.), wild oat (Avenafatua L.) and windgrass (Apera spica-venti (L.) Beauv.) were treated with postemergence applications of some of the test chemicals formulated in the same manner. Plants ranged in height from 2 to 18 cm (1- to 4-leaf stage) for postemergence treatments. Plant species in the flooded paddy test consisted of rice (Oryza sativa), smallflower umbrella sedge (Cyperus difformis L.), ducksalad (Heteranthera limosa (Sw.) Willd.) and barnyardgrass (Echinochloa crus-galli (L.) Beauv.) grown to the 2-leaf stage for testing. Treated plants and controls were maintained in a greenhouse for 12 to 14 days, after which time all species were compared to controls and visually evaluated. Plant response ratings, summarized in Table C, are based on a scale of 0 to 100 where 0 is no effect and 100 is complete control. A dash (-) response means no test result.

[2] = system: morningglory; test: Test C pre-/postemergence herbicide test; type: in vivo, Ipomoea coccinea; set-up: key to Plant response rating, Morningglory: 0 = no effect, 100 = complete control; conditions: preemergence
Description: as §1, §2

[3] = system: lambsquarters; test: Test C pre-/postemergence herbicide test; type: in vivo, Chenopodium album; conditions: preemergence; for Plant response rating (0 = no effect, 100 = complete control), Lambsquarters: 125 g ai/ha
Description: as §1, §2

[4] = system: large crabgrass; test: Test C pre-/postemergence herbicide test; type: in vivo, Digitaria sanguinalis; conditions: preemergence; for Plant response rating (0 = no effect, 100 = complete control), Crabgrass, Large: 125 g ai/ha
Description: as §1, §2

[5] = system: common ragweed; test: Test C pre-/postemergence herbicide test; type: in vivo, Ambrosia elatior; set-up: key to Plant response rating, Ragweed: 0 = no effect, 100 = complete control; conditions: preemergence; for Plant response rating (0 = no effect, 100 = complete control), Ragweed: 125 g ai/ha
Description: as §1, §2

[6] = system: giant foxtail; test: Test C pre-/postemergence herbicide test; type: in vivo, Setaria faberi; conditions: preemergence; for Plant response rating (0 = no effect, 100 = complete control), Foxtail, Giant: 125 g ai/ha
Description: as §1, §2

[7] = system: velvetleaf; test: Test C pre-/postemergence herbicide test; type: in vivo, Abutilon theophrasti; conditions: preemergence; for Plant response rating (0 = no effect, 100 = complete control), Velvetleaf: 125 g ai/ha
Description: as §1, §2

[8] = system: rice; test: Test C flooded paddy test; type: in vivo, Oryza sativa
Method in brief: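 Postemergence sprays applied to plants 2 to 18 cm tall (1- to 4-leaf stage); paddy species grown to 2-leaf stage under flooding. After 12 to 14 days in greenhouse, visual rating versus untreated controls on 0–100 scale (0 no effect, 100 complete control).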

[9] = system: smallflower umbrella sedge; test: Test C flooded paddy test; type: in vivo, Cyperus difformis
[10] = 62 g ai/ha, preemergence, scale 0 to 100, 0 no effect, 100 complete control
[11] = 250 g ai/ha, scale 0-100, preemergence
[12] = 500 g ai/ha, scale 0 to 100 (0 no effect, 100 complete control), visual, 12 to 14 days
[13] = 125 g ai/ha, scale 0 to 100 (0 no effect, 100 complete control)
[14] = 250 g ai/ha, scale of 0 to 100, 0 is no effect, 100 is complete control
[15] = 500 g ai/ha, visual rating after 12 to 14 days, scale 0 to 100 (0 no effect, 100 complete control)

SMILES	Plant response rating, Bermudagrass [1, 10]	Plant response rating (0 = no effect, 100 = complete control), Bermudagrass ([1]; preemergence)	Plant response rating, Bermudagrass [1, 11]	Plant response rating, Lambsquarters ([3]; 62 g ai/ha, scale 0 to 100)	Plant response rating (0 = no effect, 100 = complete control), Lambsquarters [3]	Plant response rating, Lambsquarters ([3]; 250 g ai/ha, scale 0-100)	Plant response rating, Crabgrass, Large ([4]; 62 g ai/ha, scale 0 to 100)	Plant response rating (0 = no effect, 100 = complete control), Crabgrass, Large [4]	Plant response rating, Crabgrass, Large ([4]; 250 g ai/ha, scale 0-100)	Plant response rating, Ragweed ([5]; 62 g ai/ha, scale 0 to 100)	Plant response rating (0 = no effect, 100 = complete control), Ragweed [5]	Plant response rating, Foxtail, Giant ([6]; 62 g ai/ha, scale 0 to 100)	Plant response rating (0 = no effect, 100 = complete control), Foxtail, Giant [6]	Plant response rating, Foxtail, Giant ([6]; 250 g ai/ha, scale 0-100)	Plant response rating, Velvetleaf ([7]; 62 g ai/ha, scale 0 to 100)	Plant response rating (0 = no effect, 100 = complete control), Velvetleaf [7]	also measured
C=CCNC(=O)c1cccc(NC(=O)c2nn(C(C)(C)C)nc2CC)c1 [Compound 414]	100	100	100	95	95	95	100	100	100	15	45	75	95	100	90	100	Plant response rating, Bermudagrass ([1]; 500 g ai/ha, scale 0 to 100 (0 no effect, 100 complete control), visual, 12 to 14 days, preemergence): 100; Plant response rating, Morningglory ([2]; 62 g ai/ha, scale 0 to 100): 10; Plant response rating (0 = no effect, 100 = complete control), Morningglory ([2]; 125 g ai/ha): 55; Plant response rating, Morningglory [2, 12]: 95; Plant response rating, Lambsquarters [3, 12]: 100; Plant response rating, Crabgrass, Large [4, 12]: 100; Plant response rating, Ragweed [5, 12]: 65; Plant response rating, Foxtail, Giant [6, 12]: 100; Plant response rating, Velvetleaf [7, 12]: 100
CCc1nn(C(C)(C)C)nc1C(=O)Nc1cccc(C(=O)N(C)CC)c1 [Compound 384]	100	100	100	100	100	100	100	100	100	100	100	95	100	100	100	100	Plant response rating, Bermudagrass ([1]; 31 g ai/ha, scale 0 to 100, 0 no effect, 100 complete control, last section of Table C (species set of preemergence test)): 65; Rice plant response rating ([8]; 62 g ai/ha, scale 0 to 100): 60; Rice plant response rating [8, 13]: 65; Rice plant response rating [8, 14]: 80; Plant response rating, Rice [8, 15]: 80; Plant response rating, Ragweed ([5]; 250 g ai/ha, scale 0-100): 100; Plant response rating, Velvetleaf ([7]; 250 g ai/ha, scale 0-100): 100; Sedge, Umbrella plant response rating ([9]; 62 g ai/ha, scale 0 to 100): 80; Sedge, Umbrella plant response rating [9, 13]: 80; Sedge, Umbrella plant response rating [9, 14]: 80; Plant response rating, Sedge, Umbrella [9, 15]: 80
